From patent US20230087609A1, “USE OF A SOLUBLE GUANYLATE CYCLASE (sGC) STIMULATOR OR OF A COMBINATION OF A sGC STIMULATOR AND AN sGC ACTIVATOR FOR CONDITIONS WHEREIN THE HEME GROUP OF sGC IS OXIDIZED OR WHEREIN sGC IS DEFICIENT IN HEME” (Universiteit Maastricht, priority 2020, published 2023)
“Also recorded” adds a separate entry of the source.

Tests used:
[1] = target: T1, human sGCa1 and mutant sGCβ1H105F (apo-sGC) in Sf9 cells (Homo sapiens, UniProt Q02153, H105F); assay: cGMP accumulation in intact Sf9 cells expressing apo-sGC; type: cell-based; conditions: 10 micromole/L DETA-NONOate alone (FIG. 12A)
T1 construct: His tag; expressed in transfected cells; host or cells: Sf9 cells co-infected with baculoviruses
T1 sequence (Q02153 1-619 H105F): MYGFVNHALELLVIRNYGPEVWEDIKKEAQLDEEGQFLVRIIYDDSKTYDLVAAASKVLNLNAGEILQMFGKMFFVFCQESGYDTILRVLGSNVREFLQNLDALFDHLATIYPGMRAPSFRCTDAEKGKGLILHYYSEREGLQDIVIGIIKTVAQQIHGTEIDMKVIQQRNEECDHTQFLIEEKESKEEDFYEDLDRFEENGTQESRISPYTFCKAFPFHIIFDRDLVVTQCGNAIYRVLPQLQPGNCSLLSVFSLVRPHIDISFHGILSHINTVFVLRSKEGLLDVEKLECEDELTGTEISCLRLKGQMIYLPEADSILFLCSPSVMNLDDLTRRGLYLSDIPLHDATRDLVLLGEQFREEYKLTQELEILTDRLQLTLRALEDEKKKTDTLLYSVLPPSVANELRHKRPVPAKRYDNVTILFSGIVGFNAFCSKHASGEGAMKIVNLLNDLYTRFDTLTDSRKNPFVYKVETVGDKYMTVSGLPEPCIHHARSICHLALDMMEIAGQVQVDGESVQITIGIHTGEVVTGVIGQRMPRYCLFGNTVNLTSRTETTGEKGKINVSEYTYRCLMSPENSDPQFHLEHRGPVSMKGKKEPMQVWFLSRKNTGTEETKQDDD
T1 sequence (Q02108 1-690 partner): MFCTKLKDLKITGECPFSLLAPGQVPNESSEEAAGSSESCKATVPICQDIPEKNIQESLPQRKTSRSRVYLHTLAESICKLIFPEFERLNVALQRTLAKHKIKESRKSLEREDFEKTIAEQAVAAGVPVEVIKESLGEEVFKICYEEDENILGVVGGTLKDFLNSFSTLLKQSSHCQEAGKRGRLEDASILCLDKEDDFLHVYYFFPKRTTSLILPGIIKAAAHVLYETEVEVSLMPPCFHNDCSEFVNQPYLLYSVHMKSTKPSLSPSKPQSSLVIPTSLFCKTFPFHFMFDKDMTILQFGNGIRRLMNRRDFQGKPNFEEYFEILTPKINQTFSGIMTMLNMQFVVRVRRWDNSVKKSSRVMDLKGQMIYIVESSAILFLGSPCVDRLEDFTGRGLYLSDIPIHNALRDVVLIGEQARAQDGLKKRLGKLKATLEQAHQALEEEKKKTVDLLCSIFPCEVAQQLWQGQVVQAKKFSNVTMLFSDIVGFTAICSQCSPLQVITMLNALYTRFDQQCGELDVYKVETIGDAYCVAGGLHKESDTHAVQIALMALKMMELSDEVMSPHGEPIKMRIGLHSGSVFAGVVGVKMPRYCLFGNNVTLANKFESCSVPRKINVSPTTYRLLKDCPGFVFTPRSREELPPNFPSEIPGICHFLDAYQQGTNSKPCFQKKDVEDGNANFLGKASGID
Description: Sf9 cells were co-infected with baculoviruses expressing human sGCa1 and mutant sGCβ1H105F. Forty-eight hours post-infection, the cells were treated with vehicle, NO donor, sGC stimulator, sGC activator or combination in 2 ml final volume of 10^6 cells per ml then the cells were incubated for 10 min at 27° C. The reaction was terminated by the addition of 0.1M of HCl, and cGMP was extracted on ice for 20 min. Cells were then sonicated to ensure complete lysis. The extract was then centrifuged and used for cGMP determination by an ELISA (Enzo Life Sciences).
Forty-eight hours post-infection, the cells were treated with vehicle, NO donor, sGC stimulator, sGC activator or combination in 2 ml final volume of 10^6 cells per ml and subsequently, the cells were incubated for 10 minutes at 27° C. The reaction was terminated by the addition of 0.1M of HCl, and cGMP was extracted on ice for 20 minutes. Cells were then sonicated to ensure complete lysis. The obtained cell extract was then centrifuged and used for cGMP determination by an ELISA. […] In the absence of any of the NO donor, the sGCs or the combination of these compounds, no cGMP synthesis is detected. It is now for the first time shown by the inventors that apo-sGC is still activatable even in the absence of an sGC activator known in the art. The presence of the sGCs facilitates NO binding to a secondary, heme-independent NO binding-site, and in addition, presence of an NO donor acts synergistically, when cGMP production is considered. Due to the invention, it is now made possible to treat patients with an sGCs, resulting in cGMP formation, under conditions wherein treatment with sGC activators has no effect at all or a too small effect, e.g. under conditions of ischemia, neonatal asphyxia, stroke, hypoxia, acute respiratory distress syndrome, asthma, oxidative (organ and/or tissue and/or cell) damage, etc. The invention provides a new treatment modality for these patients, which are often not sensitive (enough) for sGCa treatment. […] C.

[2] = target: T2, apo-sGC (sGCβ1 H105F knock-in) (Mus musculus, UniProt O54865, H105F); assay: sGC activity in lung homogenates of apo-sGC mice; type: biochemical
T2 construct: from tissue; host or cells: lung homogenate of homozygous sGCβ1 H105F knock-in mice
T2 sequence (O54865 1-620 H105F): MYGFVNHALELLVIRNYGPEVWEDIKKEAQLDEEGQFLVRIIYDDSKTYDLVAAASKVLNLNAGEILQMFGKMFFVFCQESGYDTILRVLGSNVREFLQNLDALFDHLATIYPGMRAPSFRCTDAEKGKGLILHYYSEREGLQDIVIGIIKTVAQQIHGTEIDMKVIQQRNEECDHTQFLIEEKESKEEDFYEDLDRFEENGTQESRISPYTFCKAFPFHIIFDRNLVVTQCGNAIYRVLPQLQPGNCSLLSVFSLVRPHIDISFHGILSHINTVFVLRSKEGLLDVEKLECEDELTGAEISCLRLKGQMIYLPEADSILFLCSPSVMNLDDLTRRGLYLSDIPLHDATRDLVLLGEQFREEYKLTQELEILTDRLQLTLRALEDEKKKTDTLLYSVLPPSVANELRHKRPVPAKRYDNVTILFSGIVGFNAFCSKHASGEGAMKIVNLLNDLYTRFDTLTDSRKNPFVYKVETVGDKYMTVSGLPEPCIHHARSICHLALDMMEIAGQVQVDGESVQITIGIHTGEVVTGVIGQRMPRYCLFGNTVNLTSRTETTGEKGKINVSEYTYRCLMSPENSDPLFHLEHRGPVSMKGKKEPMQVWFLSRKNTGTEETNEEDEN
T2 sequence (Q9ERL9 1-691 partner): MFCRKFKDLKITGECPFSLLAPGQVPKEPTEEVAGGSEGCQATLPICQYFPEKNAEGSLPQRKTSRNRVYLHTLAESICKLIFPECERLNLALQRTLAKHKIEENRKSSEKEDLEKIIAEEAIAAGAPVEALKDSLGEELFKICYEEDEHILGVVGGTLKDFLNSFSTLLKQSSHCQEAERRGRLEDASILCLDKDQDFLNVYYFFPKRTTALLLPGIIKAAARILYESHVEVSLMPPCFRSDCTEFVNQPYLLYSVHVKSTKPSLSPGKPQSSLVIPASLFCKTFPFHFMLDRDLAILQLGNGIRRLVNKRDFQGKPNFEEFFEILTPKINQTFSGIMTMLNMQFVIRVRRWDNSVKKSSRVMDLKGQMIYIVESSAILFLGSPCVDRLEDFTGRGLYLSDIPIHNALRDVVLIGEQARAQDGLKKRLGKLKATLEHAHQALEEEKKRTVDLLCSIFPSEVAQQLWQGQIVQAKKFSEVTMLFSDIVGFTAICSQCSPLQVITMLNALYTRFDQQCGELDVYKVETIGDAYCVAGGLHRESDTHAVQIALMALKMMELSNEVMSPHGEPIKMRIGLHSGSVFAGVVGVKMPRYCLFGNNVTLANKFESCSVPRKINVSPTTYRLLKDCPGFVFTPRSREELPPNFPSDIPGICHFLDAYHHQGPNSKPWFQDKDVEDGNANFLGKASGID
Description: Adult male Sprague Dawley (SD) rats (age, 10-12 weeks) were obtained from Animal Resources Centre (Western Australia). Animals were housed on a 12 hour day/night cycle at a room temperature of 20±2° C., in the Department of Pharmacology Animal House, Monash University. The animals were fed standard rodent chow and water was available ad libitum. Homozygous male sGC(1^H105F knock-in mice (“apo-sGC mice”) were kindly provided by Tufts Medical Center, Molecular Cardiology Research Center, Boston, Mass., USA (Toonen et al., Nat Commun. 2015; 6:8482. doi: 10.1038/ncomms9482).
To measure sGC activity, cells were stimulated with 250 μM DEA/NO or 10 μM BAY58-2667 for 3 min at 37° C. Thereafter, cells were immediately lysed in 80% ethanol. Cells were scraped and, after evaporation of ethanol, re-suspended in assay buffer and sonicated. Measurement of sGC activity in crude homogenates of mouse tissue was performed as previously described (Nedvetsky et al., Brain Res. 2002; 950(1-2):148-154. doi: 10.1016/50006-8993(02)03015-9).[9] Briefly, all samples were measured as the formation of cGMP at 37° C. during 10 min in a total incubation volume of […] containing 50 mM triethanolamine-HCl (pH 7.4), 3 mM MgCl2, 3 mM glutathione (Carl Roth, Karlsruhe, Germany), 1 mM IBMX, […], 5 mM creatine phosphate, 0.25 mg/ml creatine kinase and 1 mM or 0.5 mM GTP. After adding sGC activator in the absence or presence of the sGC stimulator the reaction was started by application of GTP solution. Following incubation of each sample for 10 min the reaction was stopped by boiling for 10 min at 95° C. Thereafter the amount of cGMP was subsequently determined by a commercial enzyme immunoassay kit (Enzo Life Sciences, Lorrach, Germany or Biotrend, Cologne, Germany). In some experiments pre-incubation of freshly homogenized tissue with ODQ at 37° C. for 20 min prior measuring sGC activation was required.

[3] = system: isolated rat mesenteric arteries; assay: Relaxation of isolated rat mesenteric arteries (myograph)
Source text: The animals were killed humanely via CO2 inhalation (95% CO2, 5% O2) followed by cervical dislocation and exsanguination. The required tissues were dissected and placed in ice-cold oxygenated Krebs' solution (composition in mM: NaCl 119, KCl 4.7, MgSO4 1.17, NaHCO3 25, KH2PO4 1.18, CaCl2 2.5, glucose 5.5, EDTA 0.026, pH 7.4). The collected arteries were carefully freed of fat and connective tissue and cut into 2 mm rings.
The segments were then mounted in a small vessel myograph for the measurement of changes in isometric tension. Two 40 μm stainless steel wires were inserted through the lumen of the segment, one attached to an isometric force transducer and the other to a support driven by a micrometer. The vessels were maintained in Krebs' solution at 37° C. in 7 ml myograph chambers and were continuously bubbled with carbogen (95% O2, 5% CO2). Arteries were allowed to equilibrate for a 30 min period under zero force after which their internal diameter was normalised to an equivalent transmural pressure of 100 mmHg. Changes in isometric tension were reordered using a Myograph Interface Model 610 M version 2.2 (AD Instruments, Pty Ltd) and a chart recorder (Yokogawa, Japan), or using a MacLab® (MacLab® data-acquisition system, AD Instruments Pty Ltd.), interfaced with a Macintosh Computer. Following the 30 min equilibration period at optimal resting tension, the vessels were contracted maximally using a potassium depolarising KPSS solution (composition in mM: KCl 123, MgSO4 1.17, KH2PO4 2.37, CaCl2 2.5, glucose, 5.5 and EDTA 0.026). After the maximum contraction reached a plateau, the vessels were washed thoroughly using Krebs' solution and the tension allowed to return to the baseline. The vessels were then pre-contracted to ≈50% maximum contraction using titrated concentration of the thromboxane A2 mimetic U46619 (0.1-100 nM) and a titrated concentration of the al agonist cirazoline (1-100 nM). Subsequently, cumulative (0.5 log unit) concentration response curve to BAY 58-2667 (1 pM-0.1 μM) were constructed in the presence and absence of 100nM BAY 41-2272 (100 nM). All treatments used in our study including the pre-incubation with 10 μM ODQ for 30 min were added before the 50% pre-contraction with cirazoline and U46619 and only one concentration response curve to any vasodilator was constructed in each segment of the blood vessel. At the completion of each concentration response curve, maximal relaxation was achieved by adding nifedipine 10 μM.
Results are expressed as mean±s.e.m, with n representing the number of samples used from separate subjects. Statistical significance was accepted at the P<0.05 level. Relaxation responses to BAY58-2667 were expressed as a percentage reversal of the level of pre-contraction to U46619, with the response to nifedipine 10 μM defined as 100% relaxation. The individual response curves obtained for each vasodilator were fitted using non-linear regressions (Graphpad Prism®, version 5). In-vitro experiments have been performed with n=3 and n=1. Maximal relaxation values (%) at specific concentrations of the compounds were compared. For multiple comparisons, student's t-test or one-way analysis of variance (ANOVA) was followed by Bonferroni's test. • The results of our experiments are represented by the following non-limiting examples.

effect of BAY 58-2667 on sGC activity in the presence of BAY 41-2272 ([2]; 0.3 μM BAY 58-2667 + 10 μM BAY 41-2272, fold stimulation versus basal activity (FIG. 1)) | sGC activity, response to compound alone ([2]; lung homogenates of apo-sGC mice, compound alone) | potentiation of BAY 58-2667 by BAY 41-2272 ([2]; lung homogenates of apo-sGC mice, maximal efficiency in the nano-molar range) | SMILES | cGMP formation, NO donor only [1] | maximal relaxation, BAY 58-2667 combined with BAY 41-2272 ([3]; 0.0003 μM BAY 58-2667 + 0.1 μM BAY 41-2272 (FIG. 2)) | maximal relaxation, BAY 58-2667 combined with BAY 41-2272 ([3]; 0.001 μM BAY 58-2667 + 0.1 μM BAY 41-2272 (FIG. 3)) | maximal relaxation, BAY 58-2667 combined with BAY 41-2272 ([3]; 0.003 μM BAY 58-2667 + 0.1 μM BAY 41-2272 (FIG. 4))
 |  |  | NCCN(CCN)/[N+]([O-])=N/O [DETA-NONOate] | hardly produced any cGMP; also recorded: no effect on cGMP formation |  |  | 
potentiated | fully responsive | potentiation | O=C(O)CCCCN(CCc1ccccc1OCc1ccc(CCc2ccccc2)cc1)Cc1ccc(C(=O)O)cc1 [BAY 58-2667] |  | Super-additive effects | Super-additive effects | Super-additive effects
